Reference: ChEMBL document CHEMBL1201861, “Genomics of Drug Sensitity in Cancer screening data, Wellcome Trust Sanger Institute”
pIC50: −log10 of the molar value.

How the values were obtained:
Test in all cases: cells
Assay type in all cases: functional, cell-based, Homo sapiens
Calu-6 = conditions: Homo sapiens, Calu-6;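 also: growth of human Calu-6 cells, read out by a cell viability assay, IC50 marking inhibition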
Description: SANGER: Inhibition of human Calu-6 cell growth in a cell viability assay.

KNS-81-FD = conditions: Homo sapiens, KNS-81-FD;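 also: growth inhibition of KNS-81-FD cells, read out with a cell viability assay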
Description: SANGER: Inhibition of human KNS-81-FD cell growth in a cell viability assay.

SCC-15 = conditions: Homo sapiens, SCC-15;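 also: growth inhibition of SCC-15 cells, read out with a cell viability assay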
Description: SANGER: Inhibition of human SCC-15 cell growth in a cell viability assay.

MHH-NB-11 = conditions: Homo sapiens, MHH-NB-11;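 also: growth inhibition of human MHH-NB-11 cells, read out by a cell viability assay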
Description: SANGER: Inhibition of human MHH-NB-11 cell growth in a cell viability assay.

VA-ES-BJ = conditions: Homo sapiens, VA-ES-BJ;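 also: growth inhibition of the VA-ES-BJ cell line, read out by a cell viability assay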
Description: SANGER: Inhibition of human VA-ES-BJ cell growth in a cell viability assay.

BB30-HNC = conditions: Homo sapiens, BB30-HNC;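 also: growth inhibition of the cultured cell line, read out by a cell viability assay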
Description: SANGER: Inhibition of human BB30-HNC cell growth in a cell viability assay.

NCI-H69 = conditions: Homo sapiens, NCI-H69;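 also: growth inhibition of the cell line, read out with a cell viability assay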
Description: SANGER: Inhibition of human NCI-H69 cell growth in a cell viability assay.

LS-1034 = conditions: Homo sapiens, LS-1034
Description: SANGER: Inhibition of human LS-1034 cell growth in a cell viability assay.

A704 = conditions: Homo sapiens, A704;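 also: growth inhibition of human A704 cells, read out with a cell viability assay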
Description: SANGER: Inhibition of human A704 cell growth in a cell viability assay.

NCI-H1648 = conditions: Homo sapiens, NCI-H1648;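 also: cell viability assay measuring inhibition of NCI-H1648 cell growth, from the Sanger screening data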
Description: SANGER: Inhibition of human NCI-H1648 cell growth in a cell viability assay.

KURAMOCHI = conditions: Homo sapiens, KURAMOCHI;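 also: growth inhibition of KURAMOCHI cells, read out with a cell viability assay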
Description: SANGER: Inhibition of human KURAMOCHI cell growth in a cell viability assay.

ML-2 = conditions: Homo sapiens, ML-2;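 also: growth inhibition of ML-2 cells, measured with a cell viability readout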
Description: SANGER: Inhibition of human ML-2 cell growth in a cell viability assay.

no-11 = conditions: Homo sapiens;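 also: growth inhibition of human NO-11 cells, read out with a cell viability assay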
Description: SANGER: Inhibition of human no-11 cell growth in a cell viability assay.

697 = conditions: Homo sapiens
Description: SANGER: Inhibition of human 697 cell growth in a cell viability assay.

LAMA-84 = conditions: Homo sapiens, LAMA-84;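 also: growth inhibition of LAMA-84 cells, read out with a cell viability assay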
Description: SANGER: Inhibition of human LAMA-84 cell growth in a cell viability assay.

LS-123 = conditions: Homo sapiens, LS-123
Description: SANGER: Inhibition of human LS-123 cell growth in a cell viability assay.

Becker = conditions: Homo sapiens, Becker;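 also: growth inhibition of Becker cells, read out with a cell viability assay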
Description: SANGER: Inhibition of human Becker cell growth in a cell viability assay.

KARPAS-299 = conditions: Homo sapiens, KARPAS-299
Description: SANGER: Inhibition of human KARPAS-299 cell growth in a cell viability assay.

NB17 = conditions: Homo sapiens, NB17;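 also: growth inhibition of NB17 cells, read out with a cell viability assay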
Description: SANGER: Inhibition of human NB17 cell growth in a cell viability assay.

OCI-AML2 = conditions: Homo sapiens, OCI-AML2;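 also: growth inhibition of OCI-AML2 cells, read out with a cell viability assay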
Description: SANGER: Inhibition of human OCI-AML2 cell growth in a cell viability assay.

NCI-H446 = conditions: Homo sapiens, NCI-H446;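 also: growth inhibition of NCI-H446 cells determined by a cell viability assay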
Description: SANGER: Inhibition of human NCI-H446 cell growth in a cell viability assay.

NCI-H82 = conditions: Homo sapiens, NCI-H82;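 also: growth inhibition of NCI-H82 cells, measured with a cell viability readout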
Description: SANGER: Inhibition of human NCI-H82 cell growth in a cell viability assay.

OVCAR-4 = conditions: Homo sapiens, OVCAR-4;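 also: growth inhibition of human OVCAR-4 cells, measured with a cell viability assay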
Description: SANGER: Inhibition of human OVCAR-4 cell growth in a cell viability assay.

NCI-H1581 = conditions: Homo sapiens, NCI-H1581;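 also: cell growth inhibition read out by a viability assay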
Description: SANGER: Inhibition of human NCI-H1581 cell growth in a cell viability assay.

ES5 = conditions: Homo sapiens, ES5;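 also: growth inhibition of human ES5 cells, read out by a cell viability assay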
Description: SANGER: Inhibition of human ES5 cell growth in a cell viability assay.

NCI-H1650 = conditions: Homo sapiens, NCI-H1650;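 also: growth inhibition of human NCI-H1650 cells measured by a cell viability assay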
Description: SANGER: Inhibition of human NCI-H1650 cell growth in a cell viability assay.

SW 954 = conditions: Homo sapiens, SW 954;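 also: growth inhibition of SW954 human cancer cells, read out as cell viability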
Description: SANGER: Inhibition of human SW954 cell growth in a cell viability assay.

ES8 = conditions: Homo sapiens, ES8;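 also: growth inhibition of human ES8 cells, read out with a cell viability assay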
Description: SANGER: Inhibition of human ES8 cell growth in a cell viability assay.

KMOE-2 = conditions: Homo sapiens, KMOE-2;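 also: growth inhibition of human KMOE-2 cells, read out with a cell viability assay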
Description: SANGER: Inhibition of human KMOE-2 cell growth in a cell viability assay.

HD-MY-Z = conditions: Homo sapiens, HD-MY-Z;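 also: growth inhibition of HD-MY-Z cells, read out with a cell viability assay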
Description: SANGER: Inhibition of human HD-MY-Z cell growth in a cell viability assay.

MLMA = conditions: Homo sapiens, MLMA;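 also: growth inhibition of MLMA cells (human), determined through a cell viability readout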
Description: SANGER: Inhibition of human MLMA cell growth in a cell viability assay.

HH = conditions: Homo sapiens, HH
Description: SANGER: Inhibition of human HH cell growth in a cell viability assay.

NCI-H23 = conditions: Homo sapiens, NCI-H23;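 also: cell viability assay measuring growth inhibition of NCI-H23 cells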
Description: SANGER: Inhibition of human NCI-H23 cell growth in a cell viability assay.

ES3 = conditions: Homo sapiens, ES3;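 also: growth inhibition of ES3 cells, read out with a cell viability assay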
Description: SANGER: Inhibition of human ES3 cell growth in a cell viability assay.

JVM-2 = conditions: Homo sapiens, JVM-2;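 also: growth inhibition of JVM-2 cells determined by a cell viability assay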
Description: SANGER: Inhibition of human JVM-2 cell growth in a cell viability assay.

NB10 = conditions: Homo sapiens, NB10;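 also: growth inhibition of NB10 cells, read out by a cell viability assay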
Description: SANGER: Inhibition of human NB10 cell growth in a cell viability assay.

EW-1 = conditions: Homo sapiens, EW-1;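 also: growth inhibition of the human EW-1 cell line, read out by a cell viability assay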
Description: SANGER: Inhibition of human EW-1 cell growth in a cell viability assay.

LU-139 = conditions: Homo sapiens, LU-139
Description: SANGER: Inhibition of human LU-139 cell growth in a cell viability assay.

COLO-684 = conditions: Homo sapiens, COLO-684
Description: SANGER: Inhibition of human COLO-684 cell growth in a cell viability assay.

LB2518-MEL = conditions: Homo sapiens, LB2518-MEL;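 also: growth inhibition of human LB2518-MEL cells, measured with a cell viability assay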
Description: SANGER: Inhibition of human LB2518-MEL cell growth in a cell viability assay.

D-263MG = conditions: Homo sapiens, D-263MG
Description: SANGER: Inhibition of human D-263MG cell growth in a cell viability assay.

A253 cell line = conditions: Homo sapiens, A253;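 also: growth inhibition of A253 cells, read out with a cell viability assay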
Description: SANGER: Inhibition of human A253 cell growth in a cell viability assay.

NMC-G1 = conditions: Homo sapiens, NMC-G1;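 also: growth inhibition of the NMC-G1 cell line, measured with a cell viability read-out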
Description: SANGER: Inhibition of human NMC-G1 cell growth in a cell viability assay.

KP-N-YS = conditions: Homo sapiens, KP-N-YS;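 also: cell viability assay measuring inhibition of cell line growth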
Description: SANGER: Inhibition of human KP-N-YS cell growth in a cell viability assay.

LXF-289 cell line = conditions: Homo sapiens, LXF-289
Description: SANGER: Inhibition of human LXF-289 cell growth in a cell viability assay.

MZ7-mel = conditions: Homo sapiens, MZ7-mel;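 also: growth inhibition of human MZ7-mel cells, measured by a cell viability assay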
Description: SANGER: Inhibition of human MZ7-mel cell growth in a cell viability assay.

TE-1 = conditions: Homo sapiens, TE-1;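 also: growth inhibition of the human TE-1 cell line, read out with a cell viability assay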
Description: SANGER: Inhibition of human TE-1 cell growth in a cell viability assay.

BV-173 = conditions: Homo sapiens, BV-173
Description: SANGER: Inhibition of human BV-173 cell growth in a cell viability assay.

HCE-T = conditions: Homo sapiens, HCE-T;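 also: cell viability assay read-out, reporting inhibition of HCE-T cell growth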
Description: SANGER: Inhibition of human HCE-T cell growth in a cell viability assay.

Q: With N[C@@H](CSC(c1ccccc1)(c1ccccc1)c1ccccc1)C(=O)O [S-TRITYL-L-CYSTEINE] as the compound, how does the pIC50 (Calu-6) read?
A: Its pIC50 is 6.37.

Q: And the pIC50 (KNS-81-FD)?
A: Its pIC50 is less than 5.29.

Q: What about the pIC50 (SCC-15) of the same compound?
A: Its pIC50 is less than 5.29.

Q: What about the pIC50 (MHH-NB-11) of the same compound?
A: The pIC50 was 5.33.

Q: And the pIC50 (VA-ES-BJ)?
A: The pIC50 was 6.09.

Q: What about the pIC50 (BB30-HNC) of the same compound?
A: Its pIC50 is 5.92.

Q: And the pIC50 (NCI-H69)?
A: Its pIC50 is 5.50.

Q: And the pIC50 (LS-1034)?
A: Its pIC50 is 5.56.

Q: And the pIC50 (A704)?
A: The pIC50 was less than 5.29.

Q: What about the pIC50 (NCI-H1648) of the same compound?
A: Its pIC50 is 6.22.

Q: And the pIC50 (KURAMOCHI)?
A: The pIC50 was less than 5.29.

Q: And the pIC50 (ML-2)?
A: Its pIC50 is 5.68.

Q: And the pIC50 (no-11)?
A: The pIC50 was 5.31.

Q: What about the pIC50 697 of the same compound?
A: Its pIC50 is 6.48.

Q: What about the pIC50 (LAMA-84) of the same compound?
A: The pIC50 was 5.50.

Q: What about the pIC50 (LS-123) of the same compound?
A: Its pIC50 is less than 5.29.

Q: What about the pIC50 (Becker) of the same compound?
A: Its pIC50 is 6.21.

Q: What about the pIC50 (KARPAS-299) of the same compound?
A: Its pIC50 is 5.38.

Q: And the pIC50 (NB17)?
A: The pIC50 was 5.51.

Q: And the pIC50 (OCI-AML2)?
A: The pIC50 was 5.38.

Q: What about the pIC50 (NCI-H446) of the same compound?
A: Its pIC50 is 5.59.

Q: And the pIC50 (NCI-H82)?
A: Its pIC50 is 5.92.

Q: And the pIC50 (OVCAR-4)?
A: The pIC50 was 5.42.

Q: And the pIC50 (NCI-H1581)?
A: The pIC50 was 5.44.

Q: And the pIC50 (ES5)?
A: Its pIC50 is less than 5.29.

Q: What about the pIC50 (NCI-H1650) of the same compound?
A: Its pIC50 is less than 5.29.

Q: And the pIC50 (SW 954)?
A: Its pIC50 is 5.72.

Q: And the pIC50 (ES8)?
A: The pIC50 was 6.36.

Q: And the pIC50 (KMOE-2)?
A: The pIC50 was less than 5.29.

Q: And the pIC50 (HD-MY-Z)?
A: The pIC50 was 5.65.

Q: What about the pIC50 (MLMA) of the same compound?
A: The pIC50 was 5.34.

Q: And the pIC50 (HH)?
A: The pIC50 was 5.45.

Q: And the pIC50 (NCI-H23)?
A: Its pIC50 is less than 5.29.

Q: What about the pIC50 (ES3) of the same compound?
A: Its pIC50 is less than 5.29.

Q: And the pIC50 (JVM-2)?
A: The pIC50 was less than 5.29.

Q: What about the pIC50 (NB10) of the same compound?
A: The pIC50 was less than 5.29.

Q: What about the pIC50 (EW-1) of the same compound?
A: Its pIC50 is 5.82.

Q: What about the pIC50 (LU-139) of the same compound?
A: The pIC50 was 5.54.

Q: And the pIC50 (COLO-684)?
A: The pIC50 was 5.68.

Q: And the pIC50 (LB2518-MEL)?
A: The pIC50 was 5.43.

Q: What about the pIC50 (D-263MG) of the same compound?
A: The pIC50 was less than 5.29.

Q: What about the pIC50 (A253 cell line) of the same compound?
A: Its pIC50 is 5.43.

Q: And the pIC50 (NMC-G1)?
A: Its pIC50 is 5.47.

Q: What about the pIC50 (KP-N-YS) of the same compound?
A: The pIC50 was less than 5.29.

Q: What about the pIC50 (LXF-289 cell line) of the same compound?
A: Its pIC50 is 6.01.

Q: And the pIC50 (MZ7-mel)?
A: Its pIC50 is 5.50.

Q: What about the pIC50 (TE-1) of the same compound?
A: The pIC50 was 5.44.

Q: And the pIC50 (BV-173)?
A: The pIC50 was 6.00.

Q: What about the pIC50 (HCE-T) of the same compound?
A: The pIC50 was 5.55.
